Data reported in patent US20230265116A1, “DEGRADATION OF (EGFR) BY CONJUGATION OF EGFR INHIBITORS WITH E3 LIGASE LIGAND AND METHODS OF USE” (BEIGENE, LTD., priority 2020, published 2023).

Legend:
[1] = system: EGFR Del19/T790M/C797S (BaF3-DTC cells); assay: EGFR degradation HTRF assay, BaF3-DTC cells; type: cell-based; details: 16h treatment; for DTC Dmax (%): maximum percentage of degradation; for DC50: read-out: DTC DC50
Procedure: BaF3 WT(wild type), BaF3-LTC(L858R/T790M/C797S) and BaF3-DTC(Del19/T790M/C797S) cells are treated with compounds diluted in 0.2% DMSO cell culture medium and incubate for 16h, 37° C., 5% CO2, H1975-#36, H1975-#28, H1975-#23 and HCC827 cells are treated with compounds diluted in 0.2% DMSO cell culture medium on day 2, incubate for 16h, 37° C., 5% CO2.the final concentriation of compounds in all assay is start with 10 uM, 5-fold dilution, total 8 doses were included.
After 16h treatment, add HTRF lysis buffer to each well; seal the plate and incubate 1 hour at room temperature on a plate shaker; Once the cells are lysed, 16 μL of cell lysate are transferred to a PE 384-well HTRF detection plate; 4 μL of pre-mixed HTRF antibodies are added to each well; Cover the plate with a plate sealer, spin 1000 rpm for 1 min, Incubate overnight at room temperature; Read on BMG PheraStar with HTRF protocol (337 nm-665 nm-620 nm).
The inhibition (degradation) percentage of the compound was calculated by the following equation: Inhibition percentage of Compound=100-100×(Signal-low control)/(High control-low control), wherein signal=each test compound group
High control=Cell group with added DMSO and without compound, indicating microplate readings without EGFR degradation;
Dmax is the maximum percentage of inhibition (degradation).
The IC50 (DC50) value of a compound can be obtained by fitting the following equation
Y=Bottom+(TOP−Bottom)/(1+((IC50/X)^hillslope))
Wherein, X and Y are known values, and IC50, Hillslope, Top and Bottom are the parameters obtained by fitting with software. Y is the inhibition percentage (calculated from the equation), X is the concentration of the compound; IC50 is the concentration of the compound when the 50% inhibition is reached. The smaller the IC50 value is, the stronger the inhibitory ability of the compound is. Vice versa, the higher the IC50 value is, the weaker the inhibitory ability of the compound is; Hillslope represents the slope of the fitted curve, generally around 1*; Bottom represents the minimum value of the curve obtained by data fitting, which is generally 0%±20%; Top represents the maximum value of the curve obtained by data fitting, which is generally 100%±20%. The experimental data were fitted by calculating and analyzing with Dotmatics data analysis software.

[2] = molecular target: T1, EGFR L858R/T790M/C797S (BaF3-LTC cells) (Homo sapiens, UniProt P00533, C797S/L858R/T790M); assay: EGFR degradation HTRF assay, BaF3-LTC cells; type: cell-based; details: BaF3-LTC, 16h treatment; for Dmax: maximum percentage of degradation, read-out: LTC Dmax (%); for DC50: read-out: LTC DC50
T1 construct: expressed in transfected cells; host or cells: BaF3
T1 sequence (P00533 25-1210 T790M/C797S/L858R): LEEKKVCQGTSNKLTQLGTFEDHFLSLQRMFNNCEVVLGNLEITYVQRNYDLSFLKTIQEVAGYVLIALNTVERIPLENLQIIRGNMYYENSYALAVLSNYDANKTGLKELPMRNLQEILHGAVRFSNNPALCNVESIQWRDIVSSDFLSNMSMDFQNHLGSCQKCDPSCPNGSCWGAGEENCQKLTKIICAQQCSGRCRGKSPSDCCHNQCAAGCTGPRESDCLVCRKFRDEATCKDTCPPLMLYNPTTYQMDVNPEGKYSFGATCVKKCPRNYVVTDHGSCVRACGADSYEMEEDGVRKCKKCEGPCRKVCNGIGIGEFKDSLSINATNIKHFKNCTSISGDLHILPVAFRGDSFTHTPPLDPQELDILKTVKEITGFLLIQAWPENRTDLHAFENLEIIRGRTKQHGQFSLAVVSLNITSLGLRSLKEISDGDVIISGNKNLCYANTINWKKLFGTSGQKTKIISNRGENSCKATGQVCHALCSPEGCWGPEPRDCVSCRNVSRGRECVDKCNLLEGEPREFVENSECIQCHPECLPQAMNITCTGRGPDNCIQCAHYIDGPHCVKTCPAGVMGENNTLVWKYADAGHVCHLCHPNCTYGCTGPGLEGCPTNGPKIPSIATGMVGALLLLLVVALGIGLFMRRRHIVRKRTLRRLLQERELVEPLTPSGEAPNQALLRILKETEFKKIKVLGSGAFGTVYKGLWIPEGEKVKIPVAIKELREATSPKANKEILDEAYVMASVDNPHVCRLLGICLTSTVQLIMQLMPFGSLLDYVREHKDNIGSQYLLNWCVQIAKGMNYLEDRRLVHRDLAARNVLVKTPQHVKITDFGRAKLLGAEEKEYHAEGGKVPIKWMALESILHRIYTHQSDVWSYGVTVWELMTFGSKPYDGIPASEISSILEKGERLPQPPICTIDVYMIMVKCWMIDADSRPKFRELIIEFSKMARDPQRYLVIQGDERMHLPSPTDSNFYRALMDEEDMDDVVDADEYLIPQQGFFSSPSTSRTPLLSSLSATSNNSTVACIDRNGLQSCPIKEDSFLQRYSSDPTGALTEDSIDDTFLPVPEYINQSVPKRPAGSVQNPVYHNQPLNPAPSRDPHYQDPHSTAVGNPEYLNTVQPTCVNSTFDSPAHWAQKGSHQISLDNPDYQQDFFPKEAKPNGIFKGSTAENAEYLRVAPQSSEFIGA
Method in brief: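 Cells treated 16 h at 37 °C, 5% CO2 in medium with 0.2% DMSO; top final concentration 10 uM, 5-fold dilution, 8 doses. Lysates read by HTRF (665/620 nm); degradation % versus DMSO high control, DC50 from four-parameter fit, Dmax as maximal degradation.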

Compound | DTC Dmax (%) [1] [%] | DC50 [1] [nM] | Dmax [2] [%] | DC50 [2] [nM]
CCc1cc(Nc2ncc(Br)c(Nc3ccc4nccnc4c3P(C)(C)=O)n2)c(OC)cc1N1CCC(N2CCN(CCc3ccc4nn(C5CCC(=O)NC5=O)cc4c3)CC2)CC1 (stereo not drawn) [Example 309, 3-(5-(2-(4-(1-(4-((5-bromo-4-((5-(dimethylphosphoryl)quinoxalin-6-yl)amino)pyrimidin-2-yl)amino)-2-ethyl-5-methoxyphenyl)piperidin-4-yl)piperazin-1-yl)ethyl)-2H-indazol-2-yl)piperidine-2,6-dione] | 92.99 | 5.89 | 87.2 | 32.1
CCc1cc(Nc2ncc(Br)c(Nc3ccc4nc(C)ccc4c3P(C)(C)=O)n2)c(OC)cc1N1CCC(N2CCN(C(=O)C3CN(c4ccc5c(c4)C(C)(C)C(=O)N5C4CCC(=O)NC4=O)C3)CC2)CC1 (stereo not drawn) [Example 409, 3-(5-(3-(4-(1-(4-((5-bromo-4-((5-(dimethylphosphoryl)-2-methylquinolin-6-yl)amino)pyrimidin-2-yl)amino)-2-ethyl-5-methoxyphenyl)piperidin-4-yl)piperazine-1-carbonyl)azetidin-1-yl)-3,3-dimethyl-2-oxoindolin-1-yl)piperidine-2,6-dione] | 95.3 | 1.23 | 96.1 | 1.46
CCc1cc(Nc2ncc(Br)c(Nc3ccc4nc(C)ccc4c3P(C)(C)=O)n2)c(OC)cc1N1CCC(N2CCN(CCc3ccc4c(c3)N(C3CCC(=O)NC3=O)C(=O)C4(C)C)CC2)CC1 (stereo not drawn) [Example 413, 3-(6-(2-(4-(1-(4-((5-bromo-4-((5-(dimethylphosphoryl)-2-methylquinolin-6-yl)amino)pyrimidin-2-yl)amino)-2-ethyl-5-methoxyphenyl)piperidin-4-yl)piperazin-1-yl)ethyl)-3,3-dimethyl-2-oxoindolin-1-yl)piperidine-2,6-dione] | 95.66 | 1.91 | 93.2 | 6.11
COc1cc(N2CCC(N3CCN(CCc4ccc(C5CCC(=O)NC5=O)c(F)c4)CC3)CC2)ccc1Nc1ncc(Br)c(Nc2ccc3nccnc3c2P(C)(C)=O)n1 (stereo not drawn) [Example 212, 3-(4-(2-(4-(1-(4-((5-bromo-4-((5-(dimethylphosphoryl)quinoxalin-6-yl)amino)pyrimidin-2-yl)amino)-3-methoxyphenyl)piperidin-4-yl)piperazin-1-yl)ethyl)-2-fluorophenyl)piperidine-2,6-dione] | 94.28 | 16.6 | 78.8 | 81.2
CCc1cc(Nc2ncc(Br)c(Nc3ccc4nc(C(F)(F)F)ccc4c3P(C)(C)=O)n2)c(OC)cc1N1CCC(N2CCN(CCc3cc(F)c(C4CCC(=O)NC4=O)c(F)c3)CC2)CC1 (stereo not drawn) [Example 435, 3-(4-(2-(4-(1-(4-((5-bromo-4-((5-(dimethylphosphoryl)-2-(trifluoromethyl)quinolin-6-yl)amino)pyrimidin-2-yl)amino)-2-ethyl-5-methoxyphenyl)piperidin-4-yl)piperazin-1-yl)ethyl)-2,6-difluorophenyl)piperidine-2,6-dione] | 92.59 | 7.48 | 89.9 | 23.9
COc1cc(N2CCC(N3C[C@H]4C[C@@H]3CN4CCC3CCN(c4cc(F)c(C5CCC(=O)NC5=O)c(F)c4)CC3)CC2)c(C)cc1Nc1ncc(Br)c(Nc2ccc3nccnc3c2P(C)(C)=O)n1 (stereo partly drawn) [Example 267, 3-(4-(4-(2-((1R,4R)-5-(1-(4-((5-bromo-4-((5-(dimethylphosphoryl)quinoxalin-6-yl)amino)pyrimidin-2-yl)amino)-5-methoxy-2-methylphenyl)piperidin-4-yl)-2,5-diazabicyclo[2.2.1]heptan-2-yl)ethyl)piperidin-1-yl)-2,6-difluorophenyl)piperidine-2,6-dione] | 93.96 | 17.9 | 90.3 | 47.7
CCc1cc(Nc2ncc(Br)c(Nc3ccc4nccnc4c3P(C)(C)=O)n2)c(OC)cc1N1CCC(N2CCN(CCc3cc(F)c(C4CCC(=O)NC4=O)c(Cl)c3)CC2)CC1 (stereo not drawn) [Example 238, 3-(4-(2-(4-(1-(4-((5-bromo-4-((5-(dimethylphosphoryl)quinoxalin-6-yl)amino)pyrimidin-2-yl)amino)-2-ethyl-5-methoxyphenyl)piperidin-4-yl)piperazin-1-yl)ethyl)-2-chloro-6-fluorophenyl)piperidine-2,6-dione] | 93.21 | 9.2 | 88.3 | 39.3
COc1cc(N2CCC(N3CCN(CCC4CCN(c5cc(F)c(C6CCC(=O)NC6=O)c(F)c5)CC4)CC3)CC2)c(C)cc1Nc1ncc(Br)c(Nc2ccc3nccnc3c2P(C)(C)=O)n1 (stereo not drawn) [Example 215, 3-(4-(4-(2-(4-(1-(4-((5-bromo-4-((5-(dimethylphosphoryl)quinoxalin-6-yl)amino)pyrimidin-2-yl)amino)-5-methoxy-2-methylphenyl)piperidin-4-yl)piperazin-1-yl)ethyl)piperidin-1-yl)-2,6-difluorophenyl)piperidine-2,6-dione] | 96.67 | 4.91 | 91.4 | 20.5
CCc1cc(Nc2ncc(Br)c(Nc3ccc4ncn(C)c(=O)c4c3P(C)(C)=O)n2)c(OC)cc1N1CCC(N2CCN(C(=O)C3CCN(c4cc(F)c(C5CCC(=O)NC5=O)c(F)c4)C3)CC2)CC1 (stereo not drawn) [Example 701, 3-(4-(3-(4-(1-(4-((5-bromo-4-((5-(dimethylphosphoryl)-3-methyl-4-oxo-3,4-dihydroquinazolin-6-yl)amino)pyrimidin-2-yl)amino)-2-ethyl-5-methoxyphenyl)piperidin-4-yl)piperazine-1-carbonyl)pyrrolidin-1-yl)-2,6-difluorophenyl)piperidine-2,6-dione] | 90.24 | 2.23 | 92.7 | 9.87
CCc1cc(Nc2ncc(Br)c(Nc3ccc4c(=O)n(C)cnc4c3P(C)(C)=O)n2)c(OC)cc1N1CCC(N2CCN(CCC3CCN(c4cc(F)c(C5CCC(=O)NC5=O)c(F)c4)CC3)CC2)CC1 (stereo not drawn) [Example 721, 3-(4-(4-(2-(4-(1-(4-((5-bromo-4-((8-(dimethylphosphoryl)-3-methyl-4-oxo-3,4-dihydroquinazolin-7-yl)amino)pyrimidin-2-yl)amino)-2-ethyl-5-methoxyphenyl)piperidin-4-yl)piperazin-1-yl)ethyl)piperidin-1-yl)-2,6-difluorophenyl)piperidine-2,6-dione] | 88.98 | 7.28 | 91.9 | 49.4
COc1cc(N2CCC(N3CC4CC(C3)N4CCC3CCN(c4cc(F)c(C5CCC(=O)NC5=O)c(F)c4)CC3)CC2)c(C)cc1Nc1ncc(Br)c(Nc2ccc3nccnc3c2P(C)(C)=O)n1 (stereo not drawn) [Example 266, 3-(4-(4-(2-(3-(1-(4-((5-bromo-4-((5-(dimethylphosphoryl)quinoxaline-6-yl)amino)pyrimidin-2-yl)amino)-5-methoxy-2-methylphenyl)piperidin-4-yl)-3,6-diazabicyclo[3.1.1]heptan-6-yl)ethyl)piperidin-1-yl)-2,6-difluorophenyl)piperidine-2,6-dione] | 83.88 | 50.3 | 73.6 | 81.9
CCc1cc(Nc2ncc(Br)c(Nc3ccc4nccnc4c3P(C)(C)=O)n2)c(OC)cc1N1CCC(N2CCN(CCc3ccc(C4CCC(=O)NC4=O)c(F)c3)C[C@H]2COC)CC1 (stereo partly drawn) [Example 288, 3-(4-(2-((S)-4-(1-(4-((5-bromo-4-((5-(dimethylphosphoryl)quinoxalin-6-yl)amino)pyrimidin-2-yl)amino)-2-ethyl-5-methoxyphenyl)piperidin-4-yl)-3-(methoxymethyl)piperazin-1-yl)ethyl)-2-fluorophenyl)piperidine-2,6-dione] | 69.76 | 21.3 | 84.1 | 333
